How the values were obtained:
[1] = target: T1, Muscarinic acetylcholine receptor M1 (Homo sapiens) (UniProt P11229); test: M1 (h) Eurofins-Cerep Cellular and Nuclear Receptor Functional Assays; details: Compound concentration 10.0 uM
T1 sequence (whole entry): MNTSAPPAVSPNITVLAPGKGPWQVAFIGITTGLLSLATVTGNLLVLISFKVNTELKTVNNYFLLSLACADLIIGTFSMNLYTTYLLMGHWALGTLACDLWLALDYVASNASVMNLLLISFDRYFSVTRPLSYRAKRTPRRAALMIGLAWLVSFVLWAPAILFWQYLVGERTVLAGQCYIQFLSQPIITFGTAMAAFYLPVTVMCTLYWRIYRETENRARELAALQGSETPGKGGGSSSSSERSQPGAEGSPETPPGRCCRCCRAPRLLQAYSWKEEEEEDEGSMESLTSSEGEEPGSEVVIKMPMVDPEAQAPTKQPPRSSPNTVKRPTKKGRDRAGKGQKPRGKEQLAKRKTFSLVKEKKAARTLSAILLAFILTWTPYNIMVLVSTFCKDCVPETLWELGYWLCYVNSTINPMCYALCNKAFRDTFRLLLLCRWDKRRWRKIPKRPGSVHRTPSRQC

[2] = target: 5'-AMP-activated protein kinase catalytic subunit alpha-1 (Homo sapiens) (UniProt Q13131); details: Compound concentration 1000.0 nM
[3] = target: Tyrosine-protein kinase Blk (Homo sapiens) (UniProt P51451); details: Compound concentration 1000.0 nM
[4] = target: Bone morphogenetic protein receptor type-1A (Homo sapiens) (UniProt P36894); details: Compound concentration 1000.0 nM
[5] = target: Serine/threonine-protein kinase BRSK2 (Homo sapiens) (UniProt Q8IWQ3); details: Compound concentration 1000.0 nM
[6] = target: Calcium/calmodulin-dependent protein kinase type 1D (Homo sapiens) (UniProt Q8IU85); details: Compound concentration 1000.0 nM
[7] = target: Calcium/calmodulin-dependent protein kinase type 1G (Homo sapiens) (UniProt Q96NX5); details: Compound concentration 1000.0 nM
Chain of Calcium/calmodulin-dependent protein kinase type 1G (Homo sapiens) (Q96NX5 whole entry): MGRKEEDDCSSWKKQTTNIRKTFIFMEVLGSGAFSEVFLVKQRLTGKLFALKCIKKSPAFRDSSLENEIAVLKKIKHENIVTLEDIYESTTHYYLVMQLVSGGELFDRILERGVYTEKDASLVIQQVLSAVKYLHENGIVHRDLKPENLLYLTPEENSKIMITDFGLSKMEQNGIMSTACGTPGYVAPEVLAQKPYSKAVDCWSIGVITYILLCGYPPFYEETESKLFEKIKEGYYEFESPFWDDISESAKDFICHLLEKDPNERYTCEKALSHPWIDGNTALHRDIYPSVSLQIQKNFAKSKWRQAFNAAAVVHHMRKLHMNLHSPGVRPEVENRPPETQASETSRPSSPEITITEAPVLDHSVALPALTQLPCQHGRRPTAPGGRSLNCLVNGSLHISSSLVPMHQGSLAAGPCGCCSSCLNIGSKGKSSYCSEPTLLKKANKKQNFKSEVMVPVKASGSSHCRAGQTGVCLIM

[8] = target: Cyclin-dependent kinase 2 (Homo sapiens) (UniProt P24941); details: Compound concentration 1000.0 nM
[9] = target: Casein kinase I isoform gamma-3 (Homo sapiens) (UniProt Q9Y6M4); details: Compound concentration 1000.0 nM
[10] = target: Serine/threonine-protein kinase 17B (Homo sapiens) (UniProt O94768); details: Compound concentration 1000.0 nM
[11] = target: Ephrin type-A receptor 4 (Homo sapiens) (UniProt P54764); details: Compound concentration 1000.0 nM
Chain of Ephrin type-A receptor 4 (Homo sapiens) (P54764 whole entry): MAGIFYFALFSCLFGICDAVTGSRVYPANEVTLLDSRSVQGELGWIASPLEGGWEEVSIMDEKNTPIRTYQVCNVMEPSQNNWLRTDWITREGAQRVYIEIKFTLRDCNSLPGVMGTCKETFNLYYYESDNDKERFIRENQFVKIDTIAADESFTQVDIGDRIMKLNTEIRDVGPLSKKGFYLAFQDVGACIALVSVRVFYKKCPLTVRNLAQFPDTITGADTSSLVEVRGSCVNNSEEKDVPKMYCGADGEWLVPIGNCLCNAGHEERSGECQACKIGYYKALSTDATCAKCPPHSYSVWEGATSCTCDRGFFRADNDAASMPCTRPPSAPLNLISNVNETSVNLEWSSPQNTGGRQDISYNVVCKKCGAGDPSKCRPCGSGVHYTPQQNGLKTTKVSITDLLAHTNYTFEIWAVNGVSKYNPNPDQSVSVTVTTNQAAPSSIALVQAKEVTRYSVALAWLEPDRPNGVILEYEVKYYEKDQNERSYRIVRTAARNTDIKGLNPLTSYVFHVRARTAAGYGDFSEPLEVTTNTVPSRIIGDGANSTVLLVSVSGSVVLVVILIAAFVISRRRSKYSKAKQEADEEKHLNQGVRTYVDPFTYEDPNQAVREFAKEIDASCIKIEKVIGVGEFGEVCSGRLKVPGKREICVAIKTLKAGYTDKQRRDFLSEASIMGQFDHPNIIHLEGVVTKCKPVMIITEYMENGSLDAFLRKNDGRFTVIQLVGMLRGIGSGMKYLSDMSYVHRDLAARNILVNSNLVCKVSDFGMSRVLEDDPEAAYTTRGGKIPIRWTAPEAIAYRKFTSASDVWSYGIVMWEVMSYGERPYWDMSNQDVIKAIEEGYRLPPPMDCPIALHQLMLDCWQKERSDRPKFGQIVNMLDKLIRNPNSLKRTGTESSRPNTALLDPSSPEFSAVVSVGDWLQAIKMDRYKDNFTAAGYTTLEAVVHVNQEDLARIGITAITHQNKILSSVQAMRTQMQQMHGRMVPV

[12] = target: Ephrin type-B receptor 6 (Homo sapiens) (UniProt O15197); details: Compound concentration 1000.0 nM
Chain of Ephrin type-B receptor 6 (Homo sapiens) (O15197 whole entry): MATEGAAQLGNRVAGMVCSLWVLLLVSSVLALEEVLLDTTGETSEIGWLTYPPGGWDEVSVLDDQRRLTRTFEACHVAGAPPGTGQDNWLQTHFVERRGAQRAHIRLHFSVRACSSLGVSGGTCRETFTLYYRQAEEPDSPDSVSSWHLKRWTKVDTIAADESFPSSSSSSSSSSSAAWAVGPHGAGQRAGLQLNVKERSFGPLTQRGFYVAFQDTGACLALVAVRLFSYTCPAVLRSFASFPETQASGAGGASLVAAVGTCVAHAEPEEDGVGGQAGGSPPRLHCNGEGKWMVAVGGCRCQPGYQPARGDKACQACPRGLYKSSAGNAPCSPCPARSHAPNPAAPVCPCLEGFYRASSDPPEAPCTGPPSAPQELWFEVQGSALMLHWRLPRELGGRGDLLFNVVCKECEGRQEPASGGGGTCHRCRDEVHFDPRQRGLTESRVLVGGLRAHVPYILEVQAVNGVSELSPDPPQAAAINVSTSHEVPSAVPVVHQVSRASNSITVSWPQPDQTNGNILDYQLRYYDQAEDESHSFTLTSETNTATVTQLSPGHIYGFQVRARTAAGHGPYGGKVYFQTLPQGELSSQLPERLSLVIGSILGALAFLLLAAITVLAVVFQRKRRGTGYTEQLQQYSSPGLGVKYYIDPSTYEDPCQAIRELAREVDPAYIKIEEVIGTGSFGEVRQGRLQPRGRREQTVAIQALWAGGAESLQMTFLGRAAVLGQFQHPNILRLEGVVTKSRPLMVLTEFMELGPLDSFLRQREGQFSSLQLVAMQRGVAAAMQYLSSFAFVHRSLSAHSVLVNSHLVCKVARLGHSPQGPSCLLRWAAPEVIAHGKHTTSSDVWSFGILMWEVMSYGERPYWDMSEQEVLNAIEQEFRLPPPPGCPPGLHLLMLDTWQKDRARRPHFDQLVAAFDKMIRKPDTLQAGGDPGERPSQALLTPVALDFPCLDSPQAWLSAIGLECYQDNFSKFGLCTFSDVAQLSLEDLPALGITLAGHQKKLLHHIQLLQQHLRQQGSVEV

[13] = target: Receptor tyrosine-protein kinase erbB-2 (Homo sapiens) (UniProt P04626); details: Compound concentration 1000.0 nM
[14] = target: Mitogen-activated protein kinase 4 (Homo sapiens) (UniProt P31152); details: Compound concentration 1000.0 nM
[15] = test system: Receptor-type tyrosine-protein kinase FLT3 (Homo sapiens), P36888 [N841I]; details: Compound concentration 1000.0 nM
[16] = target: Rhodopsin kinase GRK1 (Homo sapiens) (UniProt Q15835); details: Compound concentration 1000.0 nM
[17] = target: Inhibitor of nuclear factor kappa-B kinase subunit beta (Homo sapiens) (UniProt O14920); details: Compound concentration 1000.0 nM
Chain of Inhibitor of nuclear factor kappa-B kinase subunit beta (Homo sapiens) (O14920 whole entry): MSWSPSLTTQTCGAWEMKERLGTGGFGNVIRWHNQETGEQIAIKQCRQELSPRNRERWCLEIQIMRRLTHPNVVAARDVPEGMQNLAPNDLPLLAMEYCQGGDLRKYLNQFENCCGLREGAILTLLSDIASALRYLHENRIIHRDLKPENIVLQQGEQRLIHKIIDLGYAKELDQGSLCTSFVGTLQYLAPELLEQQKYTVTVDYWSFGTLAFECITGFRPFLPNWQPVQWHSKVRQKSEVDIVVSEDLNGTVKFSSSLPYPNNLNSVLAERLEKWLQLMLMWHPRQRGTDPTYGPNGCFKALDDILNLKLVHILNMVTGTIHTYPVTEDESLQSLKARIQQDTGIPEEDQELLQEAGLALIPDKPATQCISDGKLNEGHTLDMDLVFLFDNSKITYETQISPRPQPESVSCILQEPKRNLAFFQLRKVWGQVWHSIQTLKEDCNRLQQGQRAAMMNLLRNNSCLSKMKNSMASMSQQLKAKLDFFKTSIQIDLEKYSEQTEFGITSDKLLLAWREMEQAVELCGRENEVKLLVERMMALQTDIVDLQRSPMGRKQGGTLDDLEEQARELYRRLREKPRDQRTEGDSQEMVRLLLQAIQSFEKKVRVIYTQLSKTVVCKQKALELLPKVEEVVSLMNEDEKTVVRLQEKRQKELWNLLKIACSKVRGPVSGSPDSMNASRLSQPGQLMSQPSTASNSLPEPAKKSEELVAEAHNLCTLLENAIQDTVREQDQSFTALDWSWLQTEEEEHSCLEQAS

[18] = target: Inhibitor of nuclear factor kappa-B kinase subunit epsilon (Homo sapiens) (UniProt Q14164); details: Compound concentration 1000.0 nM
[19] = target: Tyrosine-protein kinase JAK2 (Homo sapiens) (UniProt O60674); details: Compound concentration 1000.0 nM
[20] = target: LIM domain kinase 1 (Homo sapiens) (UniProt P53667); details: Compound concentration 1000.0 nM
[21] = target: LIM domain kinase 2 (Homo sapiens) (UniProt P53671); details: Compound concentration 1000.0 nM
[22] = target: Mitogen-activated protein kinase kinase kinase 3 (Homo sapiens) (UniProt Q99759); details: Compound concentration 1000.0 nM
[23] = target: Serine/threonine-protein kinase 3 (Homo sapiens) (UniProt Q13188); details: Compound concentration 1000.0 nM
[24] = target: Myosin light chain kinase family member 4 (Homo sapiens) (UniProt Q86YV6); details: Compound concentration 1000.0 nM
[25] = target: Myosin-IIIb (Homo sapiens) (UniProt Q8WXR4); details: Compound concentration 1000.0 nM
[26] = target: Serine/threonine-protein kinase 38 (Homo sapiens) (UniProt Q15208); details: Compound concentration 1000.0 nM
[27] = test system: Phosphatidylinositol 4,5-bisphosphate 3-kinase catalytic subunit alpha isoform (Homo sapiens), P42336 [E545A]; details: Compound concentration 1000.0 nM
[28] = target: Serine/threonine-protein kinase N2 (Homo sapiens) (UniProt Q16513); details: Compound concentration 1000.0 nM
[29] = target: Protein kinase C eta type (Homo sapiens) (UniProt P24723); details: Compound concentration 1000.0 nM
Chain of Protein kinase C eta type (Homo sapiens) (P24723 whole entry): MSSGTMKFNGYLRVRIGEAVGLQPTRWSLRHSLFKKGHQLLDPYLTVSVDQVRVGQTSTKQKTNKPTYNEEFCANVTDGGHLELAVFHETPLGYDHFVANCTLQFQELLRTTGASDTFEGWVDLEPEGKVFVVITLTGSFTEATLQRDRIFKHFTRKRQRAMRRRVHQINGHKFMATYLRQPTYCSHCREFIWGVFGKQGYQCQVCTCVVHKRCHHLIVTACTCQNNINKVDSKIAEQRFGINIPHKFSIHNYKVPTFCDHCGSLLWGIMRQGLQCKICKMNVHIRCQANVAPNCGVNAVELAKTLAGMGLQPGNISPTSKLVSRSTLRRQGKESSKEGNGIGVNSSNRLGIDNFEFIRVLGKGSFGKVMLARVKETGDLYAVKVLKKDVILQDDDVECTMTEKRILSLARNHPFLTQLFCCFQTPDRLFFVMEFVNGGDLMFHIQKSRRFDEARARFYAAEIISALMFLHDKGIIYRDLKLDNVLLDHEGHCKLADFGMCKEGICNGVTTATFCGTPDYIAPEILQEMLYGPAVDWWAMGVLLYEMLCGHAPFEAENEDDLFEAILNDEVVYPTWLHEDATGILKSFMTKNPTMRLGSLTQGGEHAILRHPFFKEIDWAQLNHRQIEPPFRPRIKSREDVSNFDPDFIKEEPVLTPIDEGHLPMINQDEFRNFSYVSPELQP

[30] = target: Serine/threonine-protein kinase D3 (Homo sapiens) (UniProt O94806); details: Compound concentration 1000.0 nM
Chain of Serine/threonine-protein kinase D3 (Homo sapiens) (O94806 whole entry): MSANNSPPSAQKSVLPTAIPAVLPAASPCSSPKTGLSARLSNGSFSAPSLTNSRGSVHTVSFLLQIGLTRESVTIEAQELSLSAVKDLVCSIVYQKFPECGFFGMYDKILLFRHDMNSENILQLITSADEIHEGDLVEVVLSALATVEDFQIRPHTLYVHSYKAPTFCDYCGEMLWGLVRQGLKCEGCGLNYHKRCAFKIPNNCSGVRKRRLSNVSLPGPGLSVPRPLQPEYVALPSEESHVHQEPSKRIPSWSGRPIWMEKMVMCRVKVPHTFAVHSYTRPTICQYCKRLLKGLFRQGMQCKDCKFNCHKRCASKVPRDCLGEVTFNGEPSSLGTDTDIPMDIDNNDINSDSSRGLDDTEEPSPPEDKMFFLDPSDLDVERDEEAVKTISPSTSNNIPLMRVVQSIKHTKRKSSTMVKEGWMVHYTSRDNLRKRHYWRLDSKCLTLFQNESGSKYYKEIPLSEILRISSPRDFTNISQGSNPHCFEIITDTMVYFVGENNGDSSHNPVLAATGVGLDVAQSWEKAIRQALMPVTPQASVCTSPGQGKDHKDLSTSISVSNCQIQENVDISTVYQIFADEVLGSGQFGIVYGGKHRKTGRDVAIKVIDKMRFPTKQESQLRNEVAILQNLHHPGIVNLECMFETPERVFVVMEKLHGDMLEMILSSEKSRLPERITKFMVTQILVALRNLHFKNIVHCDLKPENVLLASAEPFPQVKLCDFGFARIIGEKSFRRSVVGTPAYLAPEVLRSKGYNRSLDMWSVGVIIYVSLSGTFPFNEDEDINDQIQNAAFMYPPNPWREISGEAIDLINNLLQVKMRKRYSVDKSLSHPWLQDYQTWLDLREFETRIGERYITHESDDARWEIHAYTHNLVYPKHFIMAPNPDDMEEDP

[31] = target: Serine/threonine-protein kinase RIO1 (Homo sapiens) (UniProt Q9BRS2); details: Compound concentration 1000.0 nM
[32] = target: Ribosomal protein S6 kinase alpha-1 (Homo sapiens) (UniProt Q15418); details: Compound concentration 1000.0 nM
[33] = target: Tyrosine-protein kinase Tec (Homo sapiens) (UniProt P42680); details: Compound concentration 1000.0 nM
[34] = target: Non-receptor tyrosine-protein kinase TNK1 (Homo sapiens) (UniProt Q13470); details: Compound concentration 1000.0 nM
[35] = target: Non-receptor tyrosine-protein kinase TYK2 (Homo sapiens) (UniProt P29597); details: Compound concentration 1000.0 nM
[36] = target: Serine/threonine-protein kinase 32C (Homo sapiens) (UniProt Q86UX6); details: Compound concentration 1000.0 nM
[37] = target: Tyrosine-protein kinase Yes (Homo sapiens) (UniProt P07947); details: Compound concentration 1000.0 nM
[38] = target: 5-hydroxytryptamine receptor 2B (Homo sapiens) (UniProt P41595); details: Compound concentration 10.0 uM
[39] = target: Sigma intracellular receptor 2 (Homo sapiens, UniProt Q5BJF2); details: Compound concentration 10.0 uM
Chain of Sigma intracellular receptor 2 (Q5BJF2 whole entry): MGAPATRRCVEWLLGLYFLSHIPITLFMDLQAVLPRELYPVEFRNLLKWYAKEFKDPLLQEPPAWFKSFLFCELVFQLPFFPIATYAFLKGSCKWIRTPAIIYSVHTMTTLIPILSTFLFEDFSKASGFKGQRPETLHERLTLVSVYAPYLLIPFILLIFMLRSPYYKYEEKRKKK

O=C(N1CCS(=O)(=O)CC1)N1C[C@H](c2ccc(OC(F)(F)F)cc2)C[C@H](c2nc(C3CC3)no2)C1 [BAY-386]
active: inhibition [39] 67.7%
12.8%: % of Control Agonist Response (Mean n=2) [1]
inactive: residual activity [2] 100% | residual activity [3] 100% | residual activity [4] 89% | residual activity [5] 100% | residual activity [6] 91% | residual activity [7] 100% | residual activity [8] 100% | residual activity [9] 100% | residual activity [10] 100% | residual activity [11] 100% | residual activity [12] 100% | residual activity [13] 100% | residual activity [14] 100% | residual activity [15] 100% | residual activity [16] 92% | residual activity [17] 77% | residual activity [18] 100% | residual activity [19] 75% | residual activity [20] 100% | residual activity [21] 95% | residual activity [22] 100% | residual activity [23] 100% | residual activity [24] 100% | residual activity [25] 89% | residual activity [26] 100% | residual activity [27] 100% | residual activity [28] 100% | residual activity [29] 100% | residual activity [30] 100% | residual activity [31] 100% | residual activity [32] 100% | residual activity [33] 100% | residual activity [34] 100% | residual activity [35] 94% | residual activity [36] 93% | residual activity [37] 96% | inhibition [38] 17.1%
57%: % Inhibition of Control Agonist Response (Mean n=2) [1]

Cc1noc([C@H]2C[C@@H](c3ccc(C(F)(F)F)cc3)CN(C(=O)N3CCS(=O)(=O)C3)C2)n1 [BAY-448]
1.2%: % of Control Agonist Response (Mean n=2) [1]
inactive: residual activity [2] 100% | residual activity [3] 100% | residual activity [4] 100% | residual activity [5] 100% | residual activity [6] 100% | residual activity [7] 100% | residual activity [8] 100% | residual activity [9] 100% | residual activity [10] 100% | residual activity [11] 100% | residual activity [12] 73% | residual activity [13] 100% | residual activity [14] 100% | residual activity [15] 100% | residual activity [16] 82% | residual activity [17] 80% | residual activity [18] 100% | residual activity [19] 100% | residual activity [20] 100% | residual activity [21] 100% | residual activity [22] 84% | residual activity [23] 100% | residual activity [24] 100% | residual activity [25] 100% | residual activity [26] 100% | residual activity [27] 64% | residual activity [28] 100% | residual activity [29] 95% | residual activity [30] 100% | residual activity [31] 100% | residual activity [32] 100% | residual activity [33] 100% | residual activity [34] 100% | residual activity [35] 100% | residual activity [36] 100% | residual activity [37] 100% | inhibition [38] 16.8% | inhibition [39] 42.4%
10.2%: % Inhibition of Control Agonist Response (Mean n=2) [1]

Reference: ChEMBL document CHEMBL4507269, “Data for DCP probe BAY-386” (2021)
